Measurements: patent publication US12343472B2, “Powder preparation, cartridge, and device” (Shin Nippon Biomedical Laboratories, Ltd., priority 2018, dated 2025)
Several values for one entry are separate records, joined by “and”; a condition that tells them apart may be missing. Equal entries are not always repeated. Where two headings read alike, the source gives them in different places.

Key:
in vivo = details: male, cynomolgus monkey, iv
Description: (§1) In order to measure the blood oxytocin concentration, blood was collected from the femoral vein with a syringe (dispensed into an EDTA-2K-containing blood collection tube) before administration and 2, 5, 10, 30, 60, 120, 240 and 480 minutes after administration (9 times in total). In order to measure the cerebrospinal fluid oxytocin concentration, cerebrospinal fluid was collected via a catheter indwelled in the cisterna magna before administration and 10, 30, 60, 120, 240 and 480 minutes after administration (7 times in total). The oxytocin concentration was measured by an EIA method involving an Oxytocin Enzyme Immunoassay Kit: Extraction-Free (Peninsula Laboratories International). This test was performed after being approved by the Animal Experimentation Ethics Committee of SNBL, Ltd.

[1] = Blood oxytocin concentration in monkey (EIA); assay type: in vivo, cynomolgus monkey; details: for AUC0-t / Cmax: blood oxytocin
Description: as §1

[2] = intravenous, individual animals

`CC[C@H](C)[C@@H]1NC(=O)[C@H](Cc2ccc(O)cc2)NC(=O)[C@@H](N)CSSC[C@@H](C(=O)N2CCC[C@H]2C(=O)N[C@@H](CC(C)C)C(=O)NCC(N)=O)NC(=O)[C@H](CC(N)=O)NC(=O)[C@H](CCC(N)=O)NC1=O` [Comparative Example 13, oxytocin] gave a level at 0.5 h (in vivo) of 0.204 ng/mL, a level at 1 h (in vivo) of 0.11 ng/mL and a level at 2 h (in vivo) of 0.057 ng/mL. For the same compound, the level at 4 h (in vivo) was 0.005 ng/mL, the Blood oxytocin concentration ([1]; 2 min, oxytocin solution (0.4 mg/mL) intravenous, individual animals) was 222.00 ng/mL and 246.00 ng/mL and 205.00 ng/mL and 168.00 ng/mL and 202.00 ng/mL and 190.00 ng/mL and the Blood oxytocin concentration ([1]; 5 min, intravenous, individual animals) was 110.00 ng/mL and 101.00 ng/mL and 116.00 ng/mL and 68.00 ng/mL and 68.40 ng/mL and 105.00 ng/mL. For the same compound, the Blood oxytocin concentration ([1]; 10 min, intravenous, individual animals) was 48.40 ng/mL and 64.20 ng/mL and 55.10 ng/mL and 40.40 ng/mL and 50.00 ng/mL and 55.70 ng/mL, the Blood oxytocin concentration ([1]; 30 min, intravenous, individual animals) was 10.50 ng/mL and 15.00 ng/mL and 11.80 ng/mL and 7.10 ng/mL and 9.60 ng/mL and 11.60 ng/mL and the Blood oxytocin concentration ([1]; 60 min, intravenous, individual animals) was 2.80 ng/mL (2×) and 4.50 ng/mL and 2.90 ng/mL and 2.50 ng/mL and 2.60 ng/mL. The Blood oxytocin concentration ([1]; 120 min, intravenous, individual animals) was 0.00 ng/mL (5×) and 1.10 ng/mL, the Blood oxytocin concentration ([1]; 240 min, intravenous, average n=6) was 0.00 ng/mL and the Blood oxytocin concentration ([1]; 240 min, intravenous, individual animals) was 0.00 ng/mL. For the same compound, the Blood oxytocin concentration ([1]; 480 min, intravenous, average n=6) was 0.00 ng/mL, the Blood oxytocin concentration ([1]; 480 min, intravenous, individual animals) was 0.00 ng/mL and the AUC0-t [1, 2] was 47.345 ng·h/mL and 39.252 ng·h/mL and 28.695 ng·h/mL and 34.345 ng·h/mL and 37.415 ng·h/mL. The Cmax [1, 2] was 246.00 ng/mL and 205.00 ng/mL and 168.00 ng/mL and 202.00 ng/mL and 190.00 ng/mL, the AUC0-t ([1]; male, cynomolgus monkey, blood, iv, intravenous, average n=6, read-out: AUC0-t (converted)) was 37.5 ng·h/mL and the Cmax ([1]; male, cynomolgus monkey, blood, iv, intravenous, average n=6, read-out: Cmax) was 206 ng/mL. The AUC0-t ([1]; male, cynomolgus monkey, blood, iv, intravenous, individual animals, read-out: AUC0-t (converted)) was 38.1 ng·h/mL, the Cmax ([1]; male, cynomolgus monkey, blood, iv, intravenous, individual animals, read-out: Cmax) was 222 ng/mL and the level at […] ([1]; male, cynomolgus monkey, blood, 2 min, intravenous, average n=6) was 206 ng/mL. The level at […] ([1]; male, cynomolgus monkey, blood, 5 min, intravenous, average n=6) was 94.7 ng/mL, the level at […] ([1]; male, cynomolgus monkey, blood, 10 min, intravenous, average n=6) was 52.3 ng/mL and the level at 0.5 h ([1]; male, cynomolgus monkey, blood, 30 min, intravenous, average n=6) was 10.9 ng/mL. The level at 1 h ([1]; male, cynomolgus monkey, blood, 60 min, intravenous, average n=6) was 3.02 ng/mL and the level at 2 h ([1]; male, cynomolgus monkey, blood, 120 min, intravenous, average n=6) was 0.18 ng/mL.
